Laboratory results taken from patent US20070248591A1, “Preventive/Therapeutic Drug for Arteriosclerosis” (TAKEDA PHARMACEUTICAL COMPANY LIMITED, priority 2004, published 2007).

Key:
[1] = test system: cells; settings: J. Biochem. (Tokyo), 117, 766-773, 1995; cited from earlier work
[2] = test system: lactosylceramide synthase; settings: Glycoconjugate J., 13, 481-486, 1996; cited from earlier work
[3] = biological target: T1, glucosylceramide synthase (Homo sapiens, UniProt Q16739); settings: Glycoconjugate J., 13, 481-486, 1996; cited from earlier work
T1 sequence (Q16739 1-394): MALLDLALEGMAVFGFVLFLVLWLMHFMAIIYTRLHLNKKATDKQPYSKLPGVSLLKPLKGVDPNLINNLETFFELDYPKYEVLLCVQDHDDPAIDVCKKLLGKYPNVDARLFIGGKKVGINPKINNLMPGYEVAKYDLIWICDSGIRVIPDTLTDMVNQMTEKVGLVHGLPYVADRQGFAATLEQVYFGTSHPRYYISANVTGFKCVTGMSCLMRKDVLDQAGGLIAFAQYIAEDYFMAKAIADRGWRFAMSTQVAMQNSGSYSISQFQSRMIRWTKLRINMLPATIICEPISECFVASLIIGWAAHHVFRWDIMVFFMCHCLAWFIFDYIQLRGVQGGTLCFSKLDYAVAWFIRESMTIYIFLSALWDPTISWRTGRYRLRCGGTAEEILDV

[4] = test system: THP-1 cells; test: DiI-labeled acetyl LDL (denatured lipoprotein) uptake activity in THP-1 cells, FACS; assay type: cell-based
Experimental: THP-1 cells (purchased from ATCC) seeded in a 6-well Low Cell Binding Plate (Nunc) at 1.5×10^6/well were treated for 2 days in RPMI-1640 medium (supplemented with 0.4% FBS, 25 mM HEPES and penicillin/streptomycin) containing phorbol-12-myristate-13-acetate (PMA) (final concentration: 100 nM) or in RPMI-1640 medium (supplemented with 0.4% FBS, 25 mM HEPES and penicillin/streptomycin) containing PMA (final concentration: 100 nM) and D-PDMP (final concentration: 20 μM). Next, the treated cells were washed with serum-free RPMI-1640 medium and then suspended in serum-free RPMI-1640 medium supplemented with DiI (1,1′-dioctadecyl-3,3,3′,3′-tetramethylindocarbocyanine)-labeled acetyl LDL (Funakoshi, final concentration: 20 μg/ml), followed by incubation at 37° C. for 90 minutes while shaking. After washing with PBS, the cells were suspended in Cellfix buffer (BD) and uptake of DiI-labeled acetyl LDL was analyzed on a FACScan (BD Bioscience). The intermediate value obtained by the FACS analysis of the cells treated with phorbol-12-myristate-13-acetate alone was made 100%, and relative values were determined under each condition.

[5] = test system: THP-1 cells; test: Cholesterol efflux activity in foamed THP-1 macrophage-like cells ([3H]cholesterol, apolipoprotein AI); assay type: cell-based; settings: for Cholesterol Efflux Activity (%): mean ± standard deviation
Experimental: THP-1 cells (purchased from ATCC; Int. J. Cancer., 26, 171-176, 1980) seeded in a 12-well plate (Falcon) at 8.0×10^5/well were treated for 3 days in RPMI-1640 medium (supplemented with 10% FBS, 25 mM HEPES and penicillin/streptomycin) containing phorbol-12-myristate-13-acetate (PMA) (final concentration: 100 nM) to allow for differentiation into macrophage-like cells. After washing with PBS, serum-free RPMI-1640 containing [^3H] cholesterol-labeled βVLDL (final cholesterol level: 150 μg/ml) was added thereto and incubated for 24 hours to prepare foamed cells. After washing twice with 0.2% BSA-containing PBS and then once with PBS, serum-free RPMI-1640 media supplemented with 0, and 20 µM D-PDMP, respectively, were added to treat for 24 and 48 hours. The supernatant was removed and RPMI-1640 medium (final concentration: 25 μg/ml) containing human apolipoprotein AI (Chemicon) was added thereto. Six hours after, the radioactivity released into the supernatant was measured in a liquid scintillation counter. The cells were further washed once with PBS and then lysed in 0.1% SDS-containing 0.1 N NaOH aqueous solution. A part of the lysate was taken up and the radioactivity was measured in a liquid scintillation counter.
The activity in efflux of cholesterol was determined by the following equation: Cholesterol efflux activity (%)=Radioactivity in supernatant/(Radioactivity in supernatant+Radioactivity in cell lysate)×100
Cells were prepared as described in (1) above. After the foamed cells prepared were washed, serum-free RPMI-1640 media containing 10 μM of glucosylceramide (Matreya, Inc.) and lactosylceramide (CALBIOCHEM), respectively, were added to treat for 24 hours. The supernatant was removed and RPMI-1640 medium (final concentration: 25 μg/ml) containing human apolipoprotein AI (Chemicon) was added thereto. Six hours after, the cholesterol efflux activity was measured by the same method as described in (1) above.

[6] = biological target: T1, glucosylceramide synthase; test: Glucosylceramide synthase enzyme assay ([14C]UDP-glucose, C8 ceramide, lysate of transfected HEK293 cells); assay type: biochemical; parameters: made in house; host or cells: HEK293 cells, transiently transfected with pcDNA3.1(-) vector; M-PER lysate, soluble fraction after 27,000 x g; settings: calculated using SAS Preclinical Package, ver. 5
Experimental: Human glucosylceramide synthase gene was obtained from IMAGE clone 5274768 (Invitrogen). The reaction solution for the reaction was composed of 2 μl of plasmid DNA of IMAGE clone 5274768, 5 μl of 10×Pfu buffer (Stratagene), 1 μl of Hotstart Pfu (Stratagene), 1 μl each of 20 μM primers and 4 μl of 2.5 mM dNTP, to which 36 μl of distilled water was added to make the volume […]. After 2 minutes at 95° C., PCR was carried out by repeating 30 cycles, one set to include 95° C. for 30 seconds, 60° C. for 30 seconds and 72° C. for 2 minutes, followed by an extension at 72° C. for 10 minutes. […]
HEK293 cells (purchased from ATCC; J. Gen. Virol., 36, 59-74, 1977) were cultured in serum-containing DMEM medium and seeded in a 10 cm collagen coated plate (Iwaki Co.) at 1.2×10^6 on the previous day of gene transfer. […] Then, the chloroform layer was collected and the radioactivity was measured in a liquid scintillation counter. The activity value was determined by the following equation: Glucosylceramide synthase activity (%)=Radioactivity of the enzyme reaction product (cpm)/Specific radioactivity of [^14C]UDP-glucose (cpm/nmol)×1/amount of protein (mg)·reaction time (hr)
D-PDMP known to inhibit the glucosylceramide synthase activity was examined using the procedure described above. The IC50 was calculated using SAS Preclinical Package, ver. […]

[7] = test system: phosphorylation of IRS-1; settings: J. Biol. Chem., 277, 3085-3092, 2002; cited from earlier work
[8] = test system: human smooth muscle cells; settings: added to the culture system; Biochem. Biophys. Res. Commun., 181, 554-61, 1991; cited from earlier work
[9] = test system: human endothelial cells; settings: added to the culture system; J. Biol. Chem., 273, 34349, 1998; cited from earlier work
[10] = exogenously added to the culture system, summary of TABLES 2 and 3

Molecule	Depletion of glucosylceramide and lactosylceramide in cells (in words) [1]	Inhibition of lactosylceramide synthase activity (in words) [2]	Inhibition of glucosylceramide synthase activity (in words) [3]	Acetyl LDL Uptake Activity (%) ([4]; D-PDMP 20 μM with PMA 100 nM, 2 days, relative to PMA alone = 100%, mean ± standard deviation)	Effect on acetyl LDL uptake activity (in words) ([4]; summary of TABLE 4)	Cholesterol Efflux Activity (%) ([5]; D-PDMP 10 μM, 24 hrs. treatment, 0 μM control 1.7 ± 0.3)	Cholesterol Efflux Activity (%) ([5]; D-PDMP 10 μM, 48 hrs. treatment, 0 μM control 2.1 ± 0.2)	Cholesterol Efflux Activity (%) ([5]; D-PDMP 20 μM, 24 hrs. treatment, 0 μM control 1.7 ± 0.3)	Cholesterol Efflux Activity (%) ([5]; D-PDMP 20 μM, 48 hrs. treatment, 0 μM control 2.1 ± 0.2)	Effect on cholesterol efflux activity (in words) ([5]; summary of TABLE 1)	IC50 [6]	Effect on the action of TNF-α that inhibits phosphorylation of IRS-1 [7]	Proliferation activity [8]	Expression of cell adhesion molecules such as ICAM-1 [9]	Cholesterol Efflux Activity (%) ([5]; Lactosylceramide 10 μM, 24 hours, 0 μM control 4.3 ± 0.2)	Effect on cholesterol efflux activity (in words) [5, 10]	Cholesterol Efflux Activity (%) ([5]; Glucosylceramide 10 μM, 24 hours, 0 μM control 3.6 ± 0.1)
CCCCCCCCCC(=O)N[C@H](CN1CCOCC1)[C@H](O)c1ccccc1 [D-PDMP, D-threo-1-phenyl-2-decanoylamino-3-morpholino-1-propanol]	deplete glucosylceramide and lactosylceramide in cells in a concentration- and treating time-dependent manner	known to inhibit the activities	known to inhibit the activities	28.9 ± 6.3^ %	suppressed the acetyl LDL uptake activity	4.4 ± 0.4%	6.0 ± 0.4%	4.3 ± 0.8%	6.8 ± 0.5%	increased the cholesterol efflux activity concentration- and time-dependently	1500 nM	suppresses the action of TNF-α that inhibits phosphorylation of IRS-1	–	–	–	–	–
Lactosylceramide	–	–	–	–	–	–	–	–	–	–	–	–	the proliferation activity is increased	is increased in human endothelial cells	2.3 ± 0.2%	suppressed	–
Glucosylceramide	–	–	–	–	–	–	–	–	–	–	–	–	–	–	–	suppressed	3.2 ± 0.2%
